The source of these data is US4136186A, “Thieno[3,2-c]pyridine derivatives” (Parcor, priority 1976, dated 1979).

The structures appear in SMILES notation. Like-named read-outs stand apart in the source and are kept apart here.

The subject of test [1] is A.D.P.-induced blood-platelet aggregation. Kind of test: A.D.P.-induced blood-platelet aggregation (plasma of orally treated rats). Format: in vivo, rats of Wistar strain. The following applies: Rattus norvegicus, oral 100 mg/kg, 3 hours after treatment, 10 μM A.D.P., read-out: Percent inhibition of blood-platelet aggregation, A.D.P. The protocol:
(§1) A blood sample is taken from the jugular vein of rats of Wistar strain. From this citrated blood, and after centrifugation, is reconstituted a plasma containing 600,000 ± 20,000 platelets per mm^3 which will be used in all aggregation determinations. (a) Determination of A.D.P.-induced blood-platelet aggregation 0.4 ml plasma is placed in a siliconized tube provided with a magnetic bar, which is also siliconized. The tube is introduced into an aggregometer connected with an optical density variation recorder. When light transmission has reached a stable value, 0.5 ml of a solution containing 10 μM A.D.P. (adenosine-diphosphate) are introduced in the tube. Blood-platelet aggregation then induces an increase of light transmission followed by a decrease subsequent to the deaggregation phase. The thus determined maximum variation of optical density characterizes the intensity of the aggregation. Different groups of 20 rats are used, each group being administered orally a test derivative, at a dosage of 100 mg/kg. The results obtained in the course of tests a) and b) are tabulated in following Table I which indicates the percent inhibition of blood-plateletaggregation obtained, with respect to the control, 3 hours after treatment.

Test [2] concerns carrageenin-induced edema. Kind of test: Localised carrageenin-induced edema method. Type of test: in vivo. The following applies: Rattus norvegicus, rats, oral 100 mg/kg at -1, 0, 1 and 2.5 hours. The protocol: (a) Localised carrageenin-induced edema method: A 1% carrageenin solution (0.1 ml) is injected in the metatarsal flexor muscles of the right hind limb of rats at time 0. The animals of the treated group are additionally administered orally 100 mg/kg of the test derivative, respectively one hour prior to and then simultaneously with the phlogogenic agent, and then one hour and 2.5 hours thereafter. The percent antiinflammatory activity, as a function of time, is determined with respect to the control group by measurements effected with a ROCH micrometer at times 0, one hour, two hours, three hours and five hours after carrageenin administration.
Background: The carrageenan paw model is a standard test of acute inflammation.

In test [3] the test system is collagen-induced blood-platelet aggregation. Kind of test: Collagen-induced blood-platelet aggregation (plasma of orally treated rats). Format: in vivo, rats of Wistar strain. The following applies: Rattus norvegicus, oral 100 mg/kg, 3 hours after treatment, collagen (bovine tendon extract), read-out: Percent inhibition of blood-platelet aggregation, Collagen. The protocol:
as §1, with “determinations.” for “determinations. (a) Determination of A.D.P.-induced blood-platelet aggregation”, “aggregation. (b) Determination of collagen-induced blood-platelet aggregation The A.D.P. solution is substituted with a collagen solution (bovine tendon extract).” for “aggregation.”

The test system of test [4] is ovalbumin-induced systemic edema. Kind of test: Ovalbumin-induced systemic edema method. Format: in vivo. The following applies: Rattus norvegicus, rats, oral 100 mg/kg one hour prior to and simultaneously with ovalbumin. The protocol: (b) Ovalbumin-induced systemic edema method Rats are administered a simultaneous intraperitoneal injection of 1 ml ovalbumin and 0.5 ml of a 1% aqueous Evans Blue solution. The animals of the treated group are additionally administered orally 100 mg/kg of the test derivative, one hour prior to and simultaneously with said ovalbumin administration. The intensity of the phenomenon thus induced is scored according to a scale from 1 to 5, according to the progress of the inflammatory syndrome. Thus are determined with respect to the control group the mean intensity and the percent decrease of the edema reaction, as a function of time. The percent anti-inflammatory activity obtained 2 hours and 3 hours, respectively, after ovalbumin injection, is tabulated in following Table III: […]

Test [5] in a line: Potentiation of hypnotics (infrahypnotic sodium pentobarbital). The following applies: mice, oral 50 mg/kg, thirty minutes prior to i.p. infrahypnotic sodium pentobarbital. Type of test: in vivo. The protocol:
In addition, the compounds of the formula (I) potentiate very markedly the effect of hypnotics. Indeed, on oral administration to different groups of mice, at a dosage of 50 mg/kg, thirty minutes prior to intraperitoneal injection of an infrahypnotic dosage of sodium pentobarbital, they produce, with respect to the untreated reference animals, a marked potentiation of the barbiturate.

The mark [6] stands for this setting: 1 hour after carrageenin, read-out: Percent anti-inflammatory activity after 1 hour.
The mark [7] stands for this setting: 2 hours after carrageenin, read-out: Percent anti-inflammatory activity after 2 hours.
Setting [8] is: 3 hours after carrageenin, read-out: Percent anti-inflammatory activity after 3 hours.
Where [9] appears, read: 5 hours after carrageenin, read-out: Percent anti-inflammatory activity after 5 hours.
The mark [10] stands for this setting: 2 hours after ovalbumin injection, read-out: Percent anti-inflammatory activity after 2 hours.
Where [11] appears, read: 3 hours after ovalbumin injection, read-out: Percent anti-inflammatory activity after 3 hours.

Take `CCOC(=O)c1sc2c(c1O)CN(Cc1ccccc1Cl)CC2` [Derivative n°1, 5-o-Chlorobenzyl-2-ethoxycarbonyl-3-hydroxy-4,5,6,7-tetrahydro-thieno[3,2-c]pyridine]: the inhibition in vivo at 100 mg/kg in test [1] turned out to be 61.2%; in test [2] (setting [6]), 46%; in test [2] (setting [7]), 53%; in test [2] (setting [8]) it was 56%; in test [2] (setting [9]), 60%; in test [3], 90.2%. The inhibition in vivo at 100 mg/kg in test [4] (setting [10]) was determined as 54%; in test [4] (setting [11]), 63%. In test [5], the “percent animals put to sleep” value is given as 60%.
Regarding `CCOC(=O)c1sc2c(c1O)CN(C(=O)c1ccccc1)CC2` [Derivative n°2, 5-benzoyl-2-ethoxycarbonyl-3-hydroxy-4,5,6,7-tetrahydro-thieno[3,2-c]pyridine], the inhibition in vivo at 100 mg/kg in test [1] is 62.8%; in test [2] (setting [6]), 42%; in test [2] (setting [7]) it was 48%; in test [2] (setting [8]), 50%; in test [2] (setting [9]), 53%; in test [3], 94.6%. Also, the values for the inhibition in vivo at 100 mg/kg in test [4] (setting [10]) and in test [4] (setting [11]) were 49% and 58%, respectively. Moreover, the “percent animals put to sleep” value in test [5] is recorded as 60%.
As to `CCOC(=O)c1sc2c(c1OC(C)=O)CN(Cc1ccccc1Cl)CC2` [Derivative n°3, 3-acetoxy-5-o-chlorobenzyl-2-ethoxycarbonyl-4,5,6,7-tetrahydro-thieno[3,2-c]pyridine], the inhibition in vivo at 100 mg/kg in test [1] is 62.4%; in test [2] (setting [6]) it was 38%; in test [2] (setting [7]), 45%; in test [2] (setting [8]), 49%; in test [2] (setting [9]) it was 51%; in test [3], 92.9%. The inhibition in vivo at 100 mg/kg in test [4] (setting [10]) was 51%; in test [4] (setting [11]), 59%. Further, the “percent animals put to sleep” value in test [5] was 80%.
As to `CCOC(=O)c1sc2c(c1O)CN(Cc1ccccc1)CC2.Cl` [Derivative n°4, 5-Benzyl-2-ethoxycarbonyl-3-hydroxy-4,5,6,7-tetrahydro-thieno[3,2-c]pyridine hydrochloride], the inhibition in vivo at 100 mg/kg was 64.8% in test [1]; 39% in test [2] (setting [6]); 45% in test [2] (setting [7]); 50% in test [2] (setting [8]); 53% in test [2] (setting [9]); 95.2% in test [3]. The inhibition in vivo at 100 mg/kg in test [4] (setting [10]) worked out at 48%; in test [4] (setting [11]), 56%. Besides, the “percent animals put to sleep” value in test [5] worked out at 70%.
For `COC(=O)c1sc2c(c1O)CN(Cc1ccccc1Cl)CC2` [Derivative n°5, 5-o-Chlorobenzyl-3-hydroxy-2-methoxycarbonyl-4,5,6,7-tetrahydro-thieno[3,2-c]pyridine], the inhibition in vivo at 100 mg/kg in test [1] amounted to 64.4%; in test [2] (setting [6]), 41%; in test [2] (setting [7]), 47%; in test [2] (setting [8]), 51%; in test [2] (setting [9]), 55%; in test [3], 96.7%. Moreover, the inhibition in vivo at 100 mg/kg in test [4] (setting [10]) was 47%; in test [4] (setting [11]), 55%. In test [5], the “percent animals put to sleep” value was found to be 70%.
For `CCOC(=O)c1sc2c(c1O)CN(C)CC2` [Derivative n°6, 2-Ethoxycarbonyl-3-hydroxy-5-methyl-4,5,6,7-tetrahydro-thieno[3,2-c]pyridine], the inhibition in vivo at 100 mg/kg in test [1] was 63.8%; in test [2] (setting [6]), 34%; in test [2] (setting [7]), 40%; in test [2] (setting [8]) it was 43%; in test [2] (setting [9]), 48%; in test [3] it was 93.2%. Also, the inhibition in vivo at 100 mg/kg in test [4] (setting [10]) was determined as 52%; in test [4] (setting [11]) it was 59%. Also, the “percent animals put to sleep” value in test [5] was found to be 90%.
In the case of `CCOC(=O)c1sc2c(c1O)CNCC2` [Derivative n°7, 2-Ethoxycarbonyl-3-hydroxy-4,5,6,7-tetrahydro-thieno[3,2-c]pyridine], the inhibition in vivo at 100 mg/kg turned out to be 62.5% in test [1]; 36% in test [2] (setting [6]); 41% in test [2] (setting [7]); 45% in test [2] (setting [8]); 52% in test [2] (setting [9]); 95.6% in test [3]. Further, the results for the inhibition in vivo at 100 mg/kg in test [4] (setting [10]) and in test [4] (setting [11]) were 50% and 60%, respectively. In addition, the “percent animals put to sleep” value in test [5] came to 90%.
For the molecule `COC(=O)c1sc2c(c1O)CNCC2` [Derivative n°8, 3-Hydroxy-2-methoxycarbonyl-4,5,6,7-tetrahydro-thieno[3,2-c]pyridine], the inhibition in vivo at 100 mg/kg in test [1] was 62.1%; in test [2] (setting [6]), 43%; in test [2] (setting [7]) it was 49%; in test [2] (setting [8]), 53%; in test [2] (setting [9]) it was 55%; in test [3] it was 94.3%. Further, the results for the inhibition in vivo at 100 mg/kg in test [4] (setting [10]) and in test [4] (setting [11]) were 48% and 57%, respectively. Also, in test [5], the “percent animals put to sleep” value was found to be 80%.
As to `CCOC(=O)c1sc2c(c1O)CN(CCc1ccccc1)CC2` [Derivative n°9, 2-Ethoxycarbonyl-3-hydroxy-5-phenethyl-4,5,6,7-tetrahydro-thieno[3,2-c]pyridine], the inhibition in vivo at 100 mg/kg came out at 64.5% in test [1]; 42% in test [2] (setting [6]); 46% in test [2] (setting [7]); 50% in test [2] (setting [8]); 54% in test [2] (setting [9]); 93.8% in test [3]. In addition, the inhibition in vivo at 100 mg/kg in test [4] (setting [10]) amounted to 53%; in test [4] (setting [11]) it was 62%. The “percent animals put to sleep” value in test [5] is on record as 100%.
With `CCCCOC(=O)c1sc2c(c1O)CN(Cc1ccccc1Cl)CC2` [Derivative n°10, 2-Butoxycarbonyl-5-o-chlorobenzyl-3-hydroxy-4,5,6,7-tetrahydro-thieno[3,2-c]pyridine], the inhibition in vivo at 100 mg/kg amounted to 63.6% in test [1]; 37% in test [2] (setting [6]); 42% in test [2] (setting [7]); 48% in test [2] (setting [8]); 51% in test [2] (setting [9]); 90.2% in test [3]. The inhibition in vivo at 100 mg/kg in test [4] (setting [10]) turned out to be 50%; in test [4] (setting [11]), 59%. In addition, the “percent animals put to sleep” value in test [5] amounted to 90%.
